In patent publication EP4813381A1, “PHARMACEUTICAL USE OF GUAIANE SESQUITERPENE DERIVATIVE” (Nanjing University Of Chinese Medicine, priority 2023, dated 2025):

Assays:
[1] = test system: chronic kidney injury induced by unilateral ureteral ligation; test: Unilateral ureteral ligation (UUO) chronic kidney injury model in mice: Scr and BUN; format: in vivo, C57BL/6 mice; conditions: serum, 14 days
[2] = test system: renal injury markers (Ngal, Havcr1), inflammatory cytokines (TNF, IL-6, IL-1), fibrosis-related factors (α-Sma, Col1a1, Tgfb1); test: Unilateral ureteral ligation (UUO) chronic kidney injury model in mice: Q-PCR of kidney tissue; format: in vivo, C57BL/6 mice; design: Tnf / Il1 / Il6: unit not given here; conditions: kidney mRNA
[3] = test system: renal injury markers (Ngal, Havcr1), inflammatory cytokines (TNF, IL-6, IL-1), fibrosis-related factors (α-Sma, Col1a1, Tgfb1); test: Folic acid acute kidney injury model in mice: Q-PCR of kidney tissue; format: in vivo, C57BL/6 mice; design: Tnf / Il1 / Il6: unit not given here; conditions: kidney mRNA, acute model (FA)
[4] = test system: MC903-induced atopic dermatitis (AD); test: MC903-induced AD model on the dorsum of mice, Compound 1 ointment: skin thickness and dermatitis score; format: in vivo; design: Skin thickness: unit not given here; conditions: for inhibition rate (dorsal skin thickness): final day; for Dermatitis Score: back, score max 12; for Skin thickness: dorsal region, AD mice
Experimental: Weigh white petrolatum, light liquid paraffin, glyceryl monostearate, ethylparaben, and cetyl alcohol. Heat to 65 °C while stirring until dissolved. Slowly add the dissolved active pharmaceutical ingredient (API) while continuing to stir until uniformly mixed. Set aside. • (2) Aqueous Phase Preparation: […] Slowly add the aqueous phase to the oil phase while maintaining 65 °C, homogenize, and continue stirring for 30 min; • (4) Cooling: Stop heating, continue stirring, gradually reduce to room temperature, cool to form an ointment, and fill containers. […] Dissolve these substances in a small amount of propylene glycol, then place the resulting solution into the aforementioned pre-cooled blank ointment base. […] Establishment of the AD Model on the Dorsum of Mice and Drug Administration: […] Except for the Normal group, all other groups underwent AD modeling: 48 hours prior to the experiment, hair on the dorsal neck region was meticulously removed using clippers and depilatory cream. […] Model and control group mice received daily application of blank ointment. Twenty-four hours after completing the 14-day modeling period, photographs of skin lesions were taken, and skin lesion and blood samples were collected. Skin Lesion Severity Score: […] Statistical analysis was performed on the data.

[5] = test system: acute kidney injury induced by folic acid; test: Folic acid acute kidney injury model in mice: serum creatinine (Scr) and blood urea nitrogen (BUN); format: in vivo, C57BL/6 mice; conditions: acute model (FA), 3 days
[6] = test system: Human keratinocytes (Hacat); test: Hyaluronic acid and hyaluronidase levels in UVB-irradiated human keratinocytes; format: cell-based; conditions: UVB 90 mJ/cm^2, 24 h
Experimental: Human keratinocytes (Hacat) were cultured routinely in DMEM medium containing 10% FBS within a 5% CO2 incubator.

[7] = test system: renal injury markers (Kim-1, Ngal), inflammatory factors (MCP-1, TNF-α); test: Diabetic nephropathy (DKD) mice: Q-PCR of kidney tissue; format: in vivo, C57/BL6J mice; conditions: kidney mRNA, gavage 10 mg/kg
Experimental: Production license number: SCXK(Su)2023-0009. […] Animals were acclimated for 7 days before use in experiments.
Administer streptozotocin (STZ, 50 mg/kg) via intraperitoneal injection for 5 consecutive days. After 72 hours, select mice with fasting blood glucose levels exceeding 16.7 mmol/L as model mice. […] Model mice were fed a high-fat diet (HFD) providing 60% of energy from fat for 8 weeks. After 8 weeks, gavage administration commenced.
Specimen Collection: One hour after the last drug administration, enucleate the eyeball to collect blood. Allow blood to stand at room temperature for 2 hours, then centrifuge at 3000 rpm for 20 minutes. Aspirate the serum, aliquot it, and store at -70 °C for future use. After blood collection, euthanize the mice by cervical dislocation. Open the abdominal cavity, remove the kidneys, and dissect away the perirenal fat and capsule. Store the tissue at -70 °C for future use.
Additional primer information is as follows: Table 24. Additional Information on Q-PCR Primers

Hepa1-6 cells = format: in vivo; conditions: Hepa1-6 xenograft, male C57BL/6 mice, compound 20 alone, dose 1 (head µmol/kg/day; text 1 mg/kg/day), intraperitoneal daily, 2 weeks
Experimental: Hepa1-6 cells were cultured and expanded in vitro. An appropriate amount of cells in the logarithmic growth phase was resuspended in a mixture of serum-free DMEM medium and Matrigel (1:1). Under sterile conditions, prepare a cell suspension at 2.5 × 10^6 cells/100 µL. Using a syringe, inject 100 µL of the cell suspension subcutaneously into the left forelimb axilla of male C57BL/6 mice. […]. […] During the treatment period, mouse body weight and tumor diameter were measured daily. At the end of the experiment, mice were euthanized by cervical dislocation, and tumors were removed and weighed. Tumor volume (TV) was calculated using the formula: TV = 1/2 × a × b^2, where a represents the longest diameter of the tumor and b represents the shortest diameter.

With `C=C1C(=O)O[C@@H]2[C@@H]3[C@]4(CC[C@@]3(C)O)C[C@]4(C)CC[C@@H]12` [compound 1] the BUN ([1]; oral gavage 0.1 mg/kg) was 18.41±1.82, the Scr ([1]; oral gavage 0.1 mg/kg) was 176.35±17.11 and the BUN ([1]; oral gavage 1 mg/kg) was 11.01±1.54. It also gave a Scr ([1]; oral gavage 1 mg/kg) of 104.65±16.26, a Col1a1 ([2]; oral 0.1 mg/kg) of 16.09±3.57 and a Havcr1 ([2]; oral 0.1 mg/kg) of 12.56±1.95. For the same compound, the Il1 ([2]; oral 0.1 mg/kg) was 6.05±0.49, the Il6 ([2]; oral 0.1 mg/kg) was 16.52±1.69 and the Ngal ([2]; oral 0.1 mg/kg) was 37.82±4.85. The Tgfb1 ([2]; oral 0.1 mg/kg) was 2.04±0.24, the Tnf ([2]; oral 0.1 mg/kg) was 6.41±1.46 and the α-Sma ([2]; oral 0.1 mg/kg) was 2.32±0.54. For the same compound, the Col1a1 ([2]; oral 1 mg/kg) was 9.45±1.03, the Havcr1 ([2]; oral 1 mg/kg) was 8.54±1.38 and the Il1 ([2]; oral 1 mg/kg) was 3.99±0.31. For the same compound, the Il6 ([2]; oral 1 mg/kg) was 6.50±1.51, the Ngal ([2]; oral 1 mg/kg) was 21.66±6.00 and the Tgfb1 ([2]; oral 1 mg/kg) was 1.55±0.19. For the same compound, the Tnf ([2]; oral 1 mg/kg) was 6.59±1.19, the α-Sma ([2]; oral 1 mg/kg) was 1.54±0.12 and the Col1a1 ([3]; oral 0.1 mg/kg) was 1.64±0.16. The Havcr1 ([3]; oral 0.1 mg/kg) was 175.10±17.63, the Il1 ([3]; oral 0.1 mg/kg) was 2.62±0.56 and the Il6 ([3]; oral 0.1 mg/kg) was 8.02±0.77. For the same compound, the Ngal ([3]; oral 0.1 mg/kg) was 30.52±5.05, the Tgfb1 ([3]; oral 0.1 mg/kg) was 1.96±0.17 and the Tnf ([3]; oral 0.1 mg/kg) was 2.89±0.59. It also gave a α-Sma ([3]; oral 0.1 mg/kg) of 1.82±0.19, a Col1a1 ([3]; oral 1 mg/kg) of 1.32±0.15 and a Havcr1 ([3]; oral 1 mg/kg) of 99.99±7.98. For the same compound, the Il1 ([3]; oral 1 mg/kg) was 1.72±0.45, the Il6 ([3]; oral 1 mg/kg) was 3.98±0.59 and the Ngal ([3]; oral 1 mg/kg) was 20.17±2.21. For the same compound, the Tgfb1 ([3]; oral 1 mg/kg) was 1.36±0.10, the Tnf ([3]; oral 1 mg/kg) was 2.76±0.71 and the α-Sma ([3]; oral 1 mg/kg) was 1.42±0.11. The “inhibition rate (dorsal skin thickness)” value ([4]; 0.01% Compound 1 ointment) was 66%, the “inhibition rate (dorsal skin thickness)” value ([4]; 0.1% Compound 1 ointment) was 72% and the “inhibition rate (dorsal skin thickness)” value ([4]; 1% Compound 1 ointment) was 83%. For the same compound, the “Dermatitis Score” value ([4]; 0.01% ointment for 7 days) was 3.67±0.33, the “Dermatitis Score” value ([4]; 0.1% ointment for 7 days) was 2.50±0.22 and the “Dermatitis Score” value ([4]; 1% ointment for 7 days) was 2.17±0.17. The Skin thickness ([4]; 0.01% ointment) was 36.06±0.91, the Skin thickness ([4]; 0.1% ointment) was 33.11±0.31 and the Skin thickness ([4]; 1% ointment) was 29.56±0.25. It also gave a BUN ([5]; oral gavage 0.1 mg/kg) of 31.46±2.54, a Scr ([5]; oral gavage 0.1 mg/kg) of 108.48±11.76 and a BUN ([5]; oral gavage 1 mg/kg) of 21.33±2.21. For the same compound, the Scr ([5]; oral gavage 1 mg/kg) was 71.95±5.74, the Hyaluronic acid ([6]; 0.01 µM) was 8.73 ± 1.62 ng/mL and the Hyaluronidase ([6]; 0.01 µM) was 124.41 ± 16.49 ng/mL. For the same compound, the Hyaluronic acid ([6]; 0.1 µM) was 14.17 ± 1.30 ng/mL, the Hyaluronidase ([6]; 0.1 µM) was 88.07 ± 10.17 ng/mL and the Hyaluronic acid ([6]; 1 µM) was 19.51 ± 1.87 ng/mL. The Hyaluronidase ([6]; 1 µM) was 56.03 ± 5.53 ng/mL, the Hyaluronic acid ([6]; 10 µM) was 24.82 ± 1.13 ng/mL and the Hyaluronidase ([6]; 10 µM) was 37.73 ± 11.49 ng/mL.

Compound `CN(C)C[C@@H]1C(=O)O[C@H]2[C@H]1CC[C@@]1(C)C[C@]13CC[C@@](C)(O)[C@H]23` [compound 20] has a BUN ([1]; oral gavage 1 mg/kg) of 9.39±0.92, a Scr ([1]; oral gavage 1 mg/kg) of 64.50±7.13 and a α-Sma ([2]; oral 1 mg/kg, 1 mg/kg) of 1.26±0.18. It also gave a Kim-1 [7] of 0.64±0.10, a Mcp-1 [7] of 1.40±0.22 and a Ngal [7] of 0.96±0.13. The Tnf-α [7] was 0.96±0.13, the “Tumor Inhibition Rate (%)” value (Hepa1-6 cells) was 72.37% and the “Tumor weight” value (Hepa1-6 cells) was 0.12 ± 0.09 g. The BUN ([5]; oral gavage 1 mg/kg) was 16.74±1.42 and the Scr ([5]; oral gavage 1 mg/kg) was 64.94±9.68.
